Assay results taken from patent US12715844B2, “Compound, preparation method therefor, composition, kit and use thereof” (SIGNDO BIOTECHNOLOGY (SUZHOU) CO., LTD, priority 2023, dated 2026).
“And” between values parts separate entries of the source, which are not always exact repeats. Equal values may be shown once.

How the values were obtained:
[1] = Pharmacokinetic parameters in rat plasma; format: in vivo; conditions: for clearance in rats in vivo, in words: compared with OTL78
PSMA receptor = molecular target: T1, PSMA receptor (Homo sapiens, UniProt Q04609); assay: Receptor binding detected by flow cytometry in vitro (competitive binding with DUPA-FITC); conditions: 22RV1 (PSMA+) cells, competition with 100 nmol/L DUPA-FITC
T1 construct: endogenous in cells; host or cells: 22RV1 (PSMA+); PC3 (PSMA−) as negative control
Description: 1. Receptor Binding was Detected by Flow Cytometry In Vitro:
Prostate-specific membrane antigen (PSMA) is overexpressed on prostate cancer cells. Both DUPA-FITC and DGPR1008 are capable of targeting the PSMA receptor in prostate cancer cells, with the difference being that DUPA-FITC is connected to a visible light dye (Ex=495 nm, Em=520 nm), whereas DGPR1008 is connected to a near-infrared dye (Ex=776 nm, Em=793 nm). Since the majority types of lasers equipped in flow cytometers operate within the visible light spectrum, the binding affinity of DGPR1008 to the receptor can not be directly measured. Therefore, the competitive binding of DGPR1008 with DUPA-FITC to PSMA is employed to indirectly assess the binding affinity of the test compound to the receptor.
DGPR1008, DUPA-FITC, 22RV1 (PSMA+), PC3 (PSMA−), 1640 culture medium, FBS, double antibiotics, trypsin, centrifuge, 4° C. constant temperature incubator, flow cytometer.
Drug preparation: 100 nmol/L DUPA-FITC was prepared using culture medium. The test compound was diluted to nine concentrations (0.00098 μM, 0.002 μM, 0.008 μM, 0.01 μM, 0.03 μM, 0.05 μM, 0.09 μM, 0.1 μM, and 0.125 μM) using culture medium containing 100 nmol/L DUPA-FITC, with three replicate wells for each concentration.
Cell culture: The cells were seeded in T75 culture flasks. After 48 h, cells in the logarithmic growth phase were taken, digested with trypsin for 1-2 min, and the digestion was then terminated by adding fresh culture medium. After cell counting, the cells were transferred into a 96-well plate (1×10^5 cells/well), totaling 27 wells. The culture medium was discarded by centrifugation (800 rpm, 5 min), and the cells were washed twice with PBS and then centrifuged to collect the cell pellet. The prepared culture media with 9 concentrations were added to the cell-containing wells, with three replicates for each concentration. The cells were incubated at 4° C. in the dark for 30 min, and then the culture medium in the wells was discarded. Cells were washed by adding 300 μL of fresh culture medium (twice) and saline (once) to each well, followed by resuspension in 300 μL of saline for flow cytometry detection.

[2] = Acute toxicity experiment on rats; conditions: three dose groups of high, medium and low doses
22RV1 (PSMA+) [3] = assay: 2-hour ex vivo tissue distribution: fluorescence of tumor and in situ normal prostate; parameters: species or system mice; conditions: for discrimination capability (tumor vs normal prostate) compared with OTL78: relative to OTL78; for Prostate fluorescence / Tumor fluorescence / T/P Ratio: 2 h ex vivo, 10 nmol/mouse; for T/P Ratio: tumor to in situ normal prostate
Description: (§1) The Prostate-specific membrane antigen (PSMA) is overexpressed on prostate cancer cells. The test compound is a PSMA-targeting molecule conjugated with a near-infrared region I dye. The test compound can bind to PSMA and “illuminate” cancer cells upon excitation by a near-infrared light source. In this experiment, the in vivo and ex vivo tissue distribution of the test compound in mice is detected using in vivo live imaging.
(§2) Matrigel was thawed on ice in advance, and the culture medium was pre-cooled on ice. After centrifugation, the cells were resuspended in the pre-cooled culture medium, followed by the addition of HC Matrigel gel in a volume equal to the culture medium. The centrifuge tube containing the cells was placed on ice and transferred to the animal facility. The cells were thoroughly dispersed before inoculation. The back of the neck was disinfected with an alcohol cotton ball, and a single intravenous administration was performed with an inoculation volume of 200 μL per mouse. All operations were performed on ice. When the tumor volume reached 300-400 mm^3, the mice were grouped for administration. Six mice with well-grown and regularly shaped tumors were selected into the group. The six mice were randomly divided into two groups: G1 (OTL78 10 nmol/mouse) and G2 (DGPR1008 10 nmol/mouse) with three mice in each group. The scanning time: 1, 2, 4, 8, 24, and 72 h.
(2) Results of 2-Hour Ex Vivo Tissue Distribution: Fluorescence Ratio of Tumor to In Situ Normal Prostate: […]

22RV1 (PSMA+) [4] = assay: In vivo live imaging comparison with the existing product OTL78; parameters: species or system mice; conditions: for TBR (tumor-to-background ratio), in words: from about 2 h to 72 h; for fluorescence value at the tumor site compared with OTL78: mice, each time point; for TBR compared with OTL78: relative to OTL78; for TBR (mean) / fluorescence value at the tumor site: 10 nmol/mouse; for TBR (mean): 200 μL/mouse
Description: (§3) “V” denotes the volume-to-mass ratio. […] Mice refer to BALB/c nude mice, 6-8 weeks old, weighing 18-20 g; rats refer to SD rats: 8 weeks old, approximately 250 g.
3. Comparison with the Existing Product OTL78
as §1
DGPR1008, 22RV1 (PSMA+), BALB/c nude mouse, 1640 culture medium, FBS, double antibodies, trypsin, Matrigel (BD), vernier caliper, centrifuge, IVIS live imager.
as §2
(1) Results and Data of In Vivo Live Imaging of Drug Efficacy (Mice were Used as Experimental Subjects in this Part)

22RV1 (PSMA+) [5] = assay: Drug efficacy validation by in vivo live imaging, three dose groups; parameters: species or system mice; conditions: for targeting properties: 22RV1 tumor mice, in vivo live imaging; for enrichment in the prostate cancer tumor site: high, medium and low doses (25, 50, 100 nmol/mouse), scans 1-48 h
Description: as §3
2. Drug Efficacy Validation Experiment Using In Vivo Live Imaging
Prostate-specific membrane antigen (PSMA) is overexpressed on prostate cancer cells. The test compound is a PSMA-targeting molecule conjugated with a near-infrared region I dye. The test compound can bind to PSMA and “illuminate” cancer cells upon excitation by a near-infrared light source. In this experiment, the in vivo tissue distribution of the test compound in mice is detected using in vivo live imaging.
DGPR1008, 22RV1 (PSMA+), PC3 (PSMA−), 1640 culture medium, FBS, double antibodies, trypsin, Matrigel (BD), vernier caliper, centrifuge, IVIS live imager.
Matrigel was thawed on ice in advance, and the culture medium was pre-cooled on ice. After centrifugation, the cells were resuspended in the pre-cooled culture medium, followed by the addition of HC Matrigel gel in a volume equal to the culture medium. The centrifuge tube containing the cells was placed on ice and transferred to the animal facility. The cells were thoroughly dispersed before inoculation. The right dorsal shoulder area of the mice was disinfected with an alcohol cotton ball, and a single intravenous administration was performed with an inoculation volume of 200 μL per mouse. All operations were performed on ice. When the tumor volume reached 300-400 mm^3, the mice were grouped for administration. Nine mice with well-grown and regularly shaped tumors were selected into the group. The nine mice were randomly divided into three groups: G1 (25 nmol/mouse), G2 (50 nmol/mouse), and G3 (100 nmol/mouse), with three mice in each group. The scanning time: 1, 2, 4, 8, 24, and 48 h.

T1 sequence (Q04609 whole entry): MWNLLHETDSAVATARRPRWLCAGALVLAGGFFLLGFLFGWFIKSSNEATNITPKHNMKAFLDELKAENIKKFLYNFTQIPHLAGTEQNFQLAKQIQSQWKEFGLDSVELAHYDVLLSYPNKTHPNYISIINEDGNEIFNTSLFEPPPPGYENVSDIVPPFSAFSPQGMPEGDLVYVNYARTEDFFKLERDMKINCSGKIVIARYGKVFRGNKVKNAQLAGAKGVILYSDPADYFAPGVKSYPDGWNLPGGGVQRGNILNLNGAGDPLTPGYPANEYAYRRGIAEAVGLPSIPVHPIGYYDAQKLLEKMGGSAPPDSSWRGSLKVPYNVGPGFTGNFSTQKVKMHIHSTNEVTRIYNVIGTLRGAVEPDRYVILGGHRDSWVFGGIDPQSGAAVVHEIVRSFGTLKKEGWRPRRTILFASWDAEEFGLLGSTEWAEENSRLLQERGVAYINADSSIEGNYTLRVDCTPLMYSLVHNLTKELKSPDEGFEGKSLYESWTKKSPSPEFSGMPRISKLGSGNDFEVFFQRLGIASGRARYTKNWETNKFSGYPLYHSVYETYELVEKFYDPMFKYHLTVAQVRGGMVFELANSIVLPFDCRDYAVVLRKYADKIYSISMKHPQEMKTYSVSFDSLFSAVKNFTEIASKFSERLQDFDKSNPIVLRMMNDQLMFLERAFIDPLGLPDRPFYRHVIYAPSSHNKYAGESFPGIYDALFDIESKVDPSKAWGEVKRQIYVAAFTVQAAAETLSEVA

SMILES	clearance in rats in vivo, in words [1]	binding affinity to PSMA receptor (PSMA receptor)	toxic reactions in acute toxicity experiment [2]	discrimination capability (tumor vs normal prostate) compared with OTL78 (22RV1 (PSMA+) [3])	TBR (tumor-to-background ratio), in words (22RV1 (PSMA+) [4])	fluorescence value at the tumor site compared with OTL78 (22RV1 (PSMA+) [4])	TBR compared with OTL78 (22RV1 (PSMA+) [4])	targeting properties (22RV1 (PSMA+) [5])	enrichment in the prostate cancer tumor site (22RV1 (PSMA+) [5])	other results
CC1(C)C(=CC=C2CCCC(C=CC3=[N+](CCCCS(=O)(=O)[O-])c4ccc(S(=O)(=O)[O-])cc4C3(C)C)=C2Oc2ccc(CC(NC(=O)CCOCCOCCNC(=O)CCC(NC(=O)NC(CCC(=O)[O-])C(=O)[O-])C(=O)[O-])C(=O)[O-])cc2)N(CCCCS(=O)(=O)[O-])c2ccc(S(=O)(=O)[O-])cc21.[K+].[K+].[K+].[K+].[K+].[K+].[K+] (centres unmarked) [Example 12]	cleared more rapidly	good affinity	no toxic reactions were observed	approximately 5 fold	good TBR	greater fluorescence values at the tumor site than OTL78	higher TBR	good targeting properties	enriched in the prostate cancer tumor site	
CC1(C)C(/C=C/C2=C(Oc3ccc(C[C@H](NC(=O)[C@H](Cc4ccccc4)NC(=O)CCOCCOCCNC(=O)CC[C@H](NC(=O)N[C@@H](CCC(=O)O)C(=O)O)C(=O)O)C(=O)O)cc3)C(=C/C=C3/N(CCCCS(=O)(=O)O)c4ccc(S(=O)(=O)O)cc4C3(C)C)/CCC2)=[N+](CCCCS(=O)(=O)[O-])c2ccc(S(=O)(=O)O)cc21 [OTL78, reference compound]										average AUC0-t ([1]; rats, 2 mg/kg, plasma): 9429 ng·h/mL; average clearance ([1]; rats, 2 mg/kg, plasma): 3.50 mL/min/kg; Prostate fluorescence (22RV1 (PSMA+) [3]; group mean): 3.27E+09 photon/second; Tumor fluorescence (22RV1 (PSMA+) [3]; group mean): 7.26E+09 photon/second; Prostate fluorescence (22RV1 (PSMA+) [3]; individual animal): 4.77E+08 photon/second and 8.11E+09 photon/second and 1.23E+09 photon/second; Tumor fluorescence (22RV1 (PSMA+) [3]; individual animal): 7.07E+09 photon/second and 1.01E+10 photon/second and 4.61E+09 photon/second; T/P Ratio (22RV1 (PSMA+) [3]; group mean): 6.61; T/P Ratio (22RV1 (PSMA+) [3]; individual animal): 14.8 and 1.25 and 3.75; TBR (mean) (22RV1 (PSMA+) [4]; 1 h): 1.30; TBR (mean) (22RV1 (PSMA+) [4]; 2 h): 1.35; TBR (mean) (22RV1 (PSMA+) [4]; 4 h): 1.38; TBR (mean) (22RV1 (PSMA+) [4]; 8 h): 1.36; TBR (mean) (22RV1 (PSMA+) [4]; 24 h): 1.55; TBR (mean) (22RV1 (PSMA+) [4]; 72 h): 1.65; fluorescence value at the tumor site (22RV1 (PSMA+) [4]; 1 h): 8.75E+09; fluorescence value at the tumor site (22RV1 (PSMA+) [4]; 2 h): 6.58E+09; fluorescence value at the tumor site (22RV1 (PSMA+) [4]; 4 h): 3.27E+09; fluorescence value at the tumor site (22RV1 (PSMA+) [4]; 8 h): 1.71E+09; fluorescence value at the tumor site (22RV1 (PSMA+) [4]; 24 h): 1.41E+09; fluorescence value at the tumor site (22RV1 (PSMA+) [4]; 72 h): 9.69E+08
CC1(C)C(=CC=C2CCCC(C=CC3=[N+](CCCCS(=O)(=O)[O-])c4ccc(S(=O)(=O)[O-])cc4C3(C)C)=C2Oc2ccc(CC(NC(=O)CCOCCOCCNC(=O)CCC(NC(=O)NC(CCC(=O)[O-])C(=O)[O-])C(=O)[O-])C(=O)[O-])cc2)N(CCCCS(=O)(=O)[O-])c2ccc(S(=O)(=O)[O-])cc21.[Li+].[Li+].[Li+].[Li+].[Li+].[Li+].[Li+] (centres unmarked) [Example 13]	cleared more rapidly	good affinity	no toxic reactions were observed	approximately 5 fold	good TBR	greater fluorescence values at the tumor site than OTL78	higher TBR	good targeting properties	enriched in the prostate cancer tumor site	
CC1(C)C(=CC=C2CCCC(C=CC3=[N+](CCCCS(=O)(=O)[O-])c4ccc(S(=O)(=O)[O-])cc4C3(C)C)=C2Oc2ccc(CC(NC(=O)CCOCCCOCCCCCOCCOCCNC(=O)CCC(NC(=O)NC(CCC(=O)[O-])C(=O)[O-])C(=O)[O-])C(=O)[O-])cc2)N(CCCCS(=O)(=O)[O-])c2ccc(S(=O)(=O)[O-])cc21.[Na+].[Na+].[Na+].[Na+].[Na+].[Na+].[Na+] (centres unmarked) [Example 51]	cleared more rapidly	good affinity	no toxic reactions were observed	approximately 5 fold	good TBR	greater fluorescence values at the tumor site than OTL78	higher TBR	good targeting properties	enriched in the prostate cancer tumor site	
CC1(C)C(=CC=C2CCCC(C=CC3=[N+](CCCCS(=O)(=O)[O-])c4ccc(S(=O)(=O)[O-])cc4C3(C)C)=C2Oc2ccc(CC(NC(=O)CCOCCCOCCCOCCOCCOCCNC(=O)CCC(NC(=O)NC(CCC(=O)[O-])C(=O)[O-])C(=O)[O-])C(=O)[O-])cc2)N(CCCCS(=O)(=O)[O-])c2ccc(S(=O)(=O)[O-])cc21.[Na+].[Na+].[Na+].[Na+].[Na+].[Na+].[Na+] (centres unmarked) [Example 41]	cleared more rapidly	good affinity	no toxic reactions were observed	approximately 5 fold	good TBR	greater fluorescence values at the tumor site than OTL78	higher TBR	good targeting properties	enriched in the prostate cancer tumor site	
